Article doi:10.1101/2022.03.30.486313v1 (biorxiv, 2022)

Assays:
SARS-CoV-2 PLpro [1] = target: T1, SARS-CoV-2 PLpro (Severe acute respiratory syndrome coronavirus 2, UniProt P0DTD1); experiment: biochemical
SARS-CoV-2 PLpro [2] = target: T1, SARS-CoV-2 PLpro; experiment: biochemical; remark: listed apart in the source

SMILES | IC50 (SARS-CoV-2 PLpro [1]) | EC50 (SARS-CoV-2 PLpro [2])
CN(C)CCSSCCN(C)C [DMGA, bis[2-(N,N-dimethylamino)ethyl] disulfide] | 9.4 µM | –
O=S(=O)(O)CCSSCCS(=O)(=O)O [Dimesna] | – | 1050 µM
Cc1ncc(CSSCc2cnc(C)c(O)c2CO)c(CO)c1O [Pyritinol] | – | 18 µM
